Experimental data as given in patent publication US20150260740A1, “COMPOSITION FOR USE AS AN ABNORMAL COAGULATION CONTROL PLASMA IN IN VITRO ASSAYS” (GRIFOLS, S.A., priority 2014, published 2015).

Assays:
Format in all cases: biochemical
[1] = system: citrated normal human plasma; assay: prothrombin time (PT) haemostasis assay; conditions: for effect on percentage of PT activity versus plasma having no anticoagulant: anticoagulant added to normal plasma: ferulic acid 0.5%, 1%, 1.5%, heparin 0.1, 0.5, 1 IU/mL, EDTA 0.5, 1, 1.5 mg/mL, FIG. 1-3; for effect on PT assay: summary statement, added to normal plasma, concentration not stated (EDTA: at a certain concentration)
Description: (§1) To assess the effect of different anticoagulants in various haemostasis assays, different plasma compositions were prepared. Use was made of citrated normal human plasma (16 mM of citrate), stored at a temperature of below −70° C. and thawed in a bath at 37° C. HEPES was then added up to a final concentration of 40 mM and the pH was adjusted to between 7.4 and 7.6 using NaOH 1N. Various plasma compositions were prepared. No anticoagulant was added to the first composition, which was used as a control. Increasing concentrations of the anticoagulants being analysed were added to the others: ferulic acid (0.5% , 1% and 1.5%), heparin (0.1 IU/mL, 0.5 IU/mL and 1 IU/mL) and EDTA (0.5 mg/mL, 1 mg/mL, 1.5 mg/mL). Each plasma composition was analysed for the aforementioned PT, aPTT, TT and RT assays in a Q Haemostasis Analyzer (Diagnostic Grifols, Spain) using the reagents DG-PT, DG-APTT Synth, DG-TT L Human and GD-Fibroclotin of Diagnostic Grifols.
FIG. 1-3 show the results obtained in the PT assay with the various anticoagulants and plot the time obtained in the PT assay as a function of the concentration of the anticoagulant present in the plasma. The control (plasma having no anticoagulant) is shown by triangles and the compositions comprising ferulic acid, heparin and EDTA are shown by squares. […] On the other hand, ferulic acid and EDTA added to normal plasma do produce a reduction in the percentage of PT activity.

[2] = system: citrated normal human plasma; assay: activated partial thromboplastin time (aPTT) haemostasis assay; conditions: summary statement, added to normal plasma; concentration not stated (EDTA: at a certain concentration)
Description: as §1
The same plasmas prepared in Example 1 were tested in the aPTT assay (FIG. 4-6). […] In addition, the prolongation in the result of the assay is proportional to the amount of anticoagulant present in the plasma.

[3] = system: citrated normal human plasma; assay: thrombin time (TT) haemostasis assay; conditions: for effect on TT assay result versus plasma having no anticoagulant: anticoagulant added to normal plasma: ferulic acid 0.5%, 1%, 1.5%, heparin 0.1, 0.5, 1 IU/mL, EDTA 0.5, 1, 1.5 mg/mL, FIG. 7-9
Description: as §1
The same plasmas prepared in Example 1 were tested in the TT assay. FIG. 7-9 show the TT results obtained when testing the prepared plasmas.

[4] = system: citrated normal human plasma; assay: reptilase time (RT) haemostasis assay; conditions: for effect on RT assay result versus plasma having no anticoagulant: anticoagulant added to normal plasma: ferulic acid 0.5%, 1%, 1.5%, heparin 0.1, 0.5, 1 IU/mL, EDTA 0.5, 1, 1.5 mg/mL, FIG. 10-12; for effect on RT assay: summary statement, added to normal plasma, concentration not stated (EDTA: at a certain concentration)
Description: as §1
The same plasmas prepared in Example 1 were tested in the RT assay.

Row | Molecule | effect on percentage of PT activity versus plasma having no anticoagulant [1] | effect on PT assay [1] | effect on aPTT assay [2] | effect on TT assay result versus plasma having no anticoagulant [3] | effect on TT assay ([3]; summary statement, added to normal plasma, EDTA at a certain concentration) | effect on RT assay result versus plasma having no anticoagulant [4] | effect on RT assay [4]
1 | O=C(O)CN(CCN(CC(=O)O)CC(=O)O)CC(=O)O [EDTA, ethylenediaminetetraacetic acid] | produce a reduction in the percentage of PT activity that is proportional to the amount of anticoagulant present in the plasma | does not affect the results of PT, aPTT and TT assays, or does so very slightly | does not affect the results of PT, aPTT and TT assays, or does so very slightly | does not prolong the result of the assay | does not affect the results of PT, aPTT and TT assays, or does so very slightly | do produce an abnormal RT result | can prolong the RT assay
2 | COc1cc(/C=C/C(=O)O)ccc1O [ferulic acid] | produce a reduction in the percentage of PT activity that is proportional to the amount of anticoagulant present in the plasma |  |  | do produce an abnormal TT |  | do produce an abnormal RT result | 
3 | heparin | has no effect on the PT assay | does not affect the PT assay, or does so to a lesser extent | prolongs the aPTT assay | do produce an abnormal TT |  | does not prolong the RT at any of the concentrations tested | does not prolong the RT assay
